The target of assay [1] is T1, Ephrin type-B receptor 2 (Homo sapiens, UniProt P29323).
T1 sequence (P29323 whole entry): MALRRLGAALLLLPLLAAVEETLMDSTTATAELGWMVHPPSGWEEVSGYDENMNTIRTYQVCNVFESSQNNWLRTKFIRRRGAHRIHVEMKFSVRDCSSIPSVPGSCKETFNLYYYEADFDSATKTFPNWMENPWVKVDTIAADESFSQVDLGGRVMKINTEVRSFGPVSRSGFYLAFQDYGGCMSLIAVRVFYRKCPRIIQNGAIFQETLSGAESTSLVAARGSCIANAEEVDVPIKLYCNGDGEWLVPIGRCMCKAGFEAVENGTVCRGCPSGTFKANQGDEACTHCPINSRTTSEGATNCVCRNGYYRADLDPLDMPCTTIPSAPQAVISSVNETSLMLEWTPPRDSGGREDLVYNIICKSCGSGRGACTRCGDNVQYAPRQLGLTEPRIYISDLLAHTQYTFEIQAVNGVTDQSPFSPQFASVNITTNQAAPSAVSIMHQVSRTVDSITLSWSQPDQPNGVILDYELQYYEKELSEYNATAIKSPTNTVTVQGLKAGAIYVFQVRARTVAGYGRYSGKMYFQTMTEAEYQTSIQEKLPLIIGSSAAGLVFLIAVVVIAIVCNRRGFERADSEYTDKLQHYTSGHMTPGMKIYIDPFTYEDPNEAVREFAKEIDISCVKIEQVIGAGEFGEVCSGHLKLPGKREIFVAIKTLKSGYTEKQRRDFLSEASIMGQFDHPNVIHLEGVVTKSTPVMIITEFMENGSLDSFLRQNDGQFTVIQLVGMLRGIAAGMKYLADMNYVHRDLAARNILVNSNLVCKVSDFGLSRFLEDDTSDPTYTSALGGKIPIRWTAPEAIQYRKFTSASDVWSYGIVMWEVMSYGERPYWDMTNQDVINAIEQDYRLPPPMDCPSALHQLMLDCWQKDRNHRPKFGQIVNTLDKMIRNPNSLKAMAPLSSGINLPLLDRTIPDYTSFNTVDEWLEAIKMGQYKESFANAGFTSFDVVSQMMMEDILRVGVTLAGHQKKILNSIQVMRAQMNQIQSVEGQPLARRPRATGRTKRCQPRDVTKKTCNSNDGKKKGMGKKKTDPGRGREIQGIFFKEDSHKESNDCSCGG
Nature of the assay: Inhibition of EPH receptor B2 using ELISA. (ELISA stands for enzyme-linked immunosorbent assay.)

The target of assay [2] is T1, Ephrin type-B receptor 2. Kind of assay: Equilibrium binding constant for EPH receptor B2.

Structures are written as SMILES.

What is called IC50 is the concentration that gives 50% inhibition. Read a low IC50 as greater potency in that assay. By Kd is commonly meant a measure of binding affinity in units of concentration. Higher therefore signals lower affinity. Turning to `COc1cc2ncnc(Nc3cccc(O)c3)c2cc1OC`, inhibition in assay [1] was half-maximal at 1.2 µM (IC50). This compound also came in with a Kd in assay [2] of 2.4 µM.
In assay [1], `O=C1C=C(Nc2ccc(O)cc2)C(=O)c2ccccc21` returned an IC50 of 38 µM.
Turning to `COc1cc2ncnc(Nc3cccc(Br)c3)c2cc1OC`, the IC50 in assay [1] was 10.2 µM. Besides, in assay [2], the Kd is 8.1 µM.
The matching figures for `CN(C)c1ccc(/C=C2/C(=O)Nc3ccccc32)cc1`: 27.5 µM and 19.5 µM.
The matching figures for `CC(C)(C)n1nc(-c2ccc(Cl)cc2)c2c(N)ncnc21`: 52 µM and 36.5 µM.
For `CNc1ccc2c(Nc3cccc(Br)c3)ncnc2c1` the same measures were 34 µM and 21.9 µM.
`COc1cc2ncnc(Nc3ccc(Oc4ccccc4)cc3)c2cc1OC` gave an IC50 in assay [1] of 86 µM. For the same compound, the Kd in assay [2] turned out to be 58.4 µM.

The values are drawn from ChEMBL document CHEMBL1144354, “Frontal affinity chromatography with MS detection of EphB2 tyrosine kinase receptor. 2. Identification of small-molecule inhibitors via coupling with virtual screening” (J Med Chem, 2005).
